# Measured values from patent publication US20090202573A1, “POLYMERIC CONJUGATES CONTAINING POSITIVELY-CHARGED MOIETIES” (ENZON PHARMACEUTICALS, INC., priority 2006, published 2009).
# d = 2'-deoxy (DNA); r = 2'-OH (RNA)
# Columns and labels:
# Survivin mRNA [1] = assay: Survivin mRNA downregulation in DU145 cell model (prostate cancer) (Example 68); type: cell-based; conditions: Example 68: DU145 cells, FIG. 19
# Excerpt: DU145 cells were transfected with the same compounds used in Example 67.
# Survivin mRNA [2] = assay: Survivin mRNA downregulation in A549 cell model, RT-PCR (Examples 67, 69, 70, 71, 71 bis); type: cell-based, human
# Protocol: This study was conducted to determine the effects of the positively charged polymers on Survivin mRNA expression. A549 human lung cells were transfected with each of compounds 33b-I-R4, 33b-I-R5 and 33a-I-R3 in concentrations of 1000 nM, 200 nM, 40 nM, 8 nM and 1.6 nM. […] Compound 33a-I-R3 ([RGD-TATC-S—S]7-^20K8arm PEG-SS-antisense Survivin LNA) includes the TAT peptide and antisense Survivin LNA. The Survivin mRNA expression in the A549 cells treated with each of the compounds was measured by RT-PCR one day after the treatment.
# A549 human lung cancer cells were transfected with each of compound 33a-I-R2 and the naive antisense Survivin LNA. Compound 33a-I-R2 ([(Arg)9C—S—S]7-^20K8arm PEG-S—S-antisense Survivin LNA) includes seven polymer arm terminals connected to C(Arg)9 and one arm terminal connected to the antisense Survivin LNA via the intracellular releasable disulfide bond. The naive oligonucleotides (antisense Survivin LNA) were also transfected with the transfection agent lipofectamine.
# A549 cells were transfected with each of compound 59 and the antisense Survivin LNA dimer. The dimer of the antisense Survivin LNA modified with a C6—SH tail (antisense Survivin LNA-C6—S—S—C6-antisense Survivin LNA) was also transfected with the transfection agent. Compound 59 contains a hydrazone-based releasable linker.
# This study was conducted to determine whether the positively charged polymers containing a targeting agent is as effective as the positively charged polymers without a targeting agent and thus the polymers containing the targeting agent can be utilized for targeted delivery. A549 cells were transfected with each of compounds 33a-I-R1 (TATC-S—S)7-^20K8arm PEG-S—S-antisense Survivin LNA) and 33a-I-R3 ([RGD-TATC-S—S]7-^20K8arm PEG-S—S-antisense Survivin LNA). In compounds 33a-I-R1 and 33a-I-R3, seven polymer arm terminals are connected to C-TAT and C-TAT-RGD, respectively. The cells were also transfected with the antisense Survivin LNA modified with a SH—C6 tail with or without the transfection agent. […] This feature of the positively charged polymers is beneficial to target agent directed delivery of oligonucleotide therapeutics.
# A549 human lung cancer cells were transfected with each of compound 33a-I-R1 (TATC-S—S)7-^20K8arm PEG-S—S-antisense Survivin LNA), compound 33a-II-R1 (TATC-S—S)7-^20K8arm PEG-S—S-scrambled Survivin LNA) and the native antisense Survivin LNA. Compound […] corresponds to compound […] except in that it includes mismatching nucleotides within the antisense Survivin LNA (scrambled Survivin LNA: 5′-s^mCsGs^mCsAsgsaststsasgsasasAs^mCs^mCst-3′). The naive antisense Survivin LNA was also transfected with the transfection agent.
# BCL2 mRNA = BCL2 mRNA downregulation, RT-PCR, A431 cells (Example 66); type: cell-based, human; conditions: without transfection agent, FIG. 17
# Protocol: This study was conducted to determine whether the oligonucleotides uptaken by cancer cells downregulate specific gene expression involved in cancer. A431 cells were transfected with native oligonucleotides and compound 23a-I-R1 without transfection agent. The positively charged polymer conjugate contains TAT and BCL2 siRNA.
# [3] = Example 71: A549 cells, polymers with or without targeting agent (RGD), FIG. 22
substance,measurement,setting,value
(TATC-S—S)7-^20K8arm PEG-S—S-antisense Survivin LNA [Compound 33a-I-R1],Survivin mRNA expression,Survivin mRNA [1],similarly observed
same,Survivin mRNA expression,Survivin mRNA [2]; [3],downregulated Survivin mRNA expression
same,Specific inhibition of Survivin mRNA expression,"Survivin mRNA [2]; second Example 71: A549 cells, antisense versus scrambled (mismatching) Survivin LNA, FIG. 23",significantly inhibited Survivin mRNA expression
[(Arg)9C—S—S]7-^20K8arm PEG-S—S-antisense Survivin LNA [Compound 33a-I-R2],Survivin mRNA expression,"Survivin mRNA [2]; Example 69: A549 cells, without the transfection agent, FIG. 20",significantly downregulated Survivin mRNA expression
[RGD-TATC-S—S]7-^20K8arm PEG-SS-antisense Survivin LNA [Compound 33a-I-R3],Survivin mRNA expression,Survivin mRNA [1],significant down-regulation of Survivin mRNA expression
same,Survivin mRNA expression,"Survivin mRNA [2]; Example 67: A549 cells, 1000 nM to 1.6 nM, RT-PCR one day after treatment, without transfection agent, FIG. 18",significantly downregulated Survivin mRNA expression
same,dose dependence of Survivin mRNA downregulation,"Survivin mRNA [2]; Example 67: A549 cells, 1000, 200, 40, 8 and 1.6 nM, FIG. 18",dose-dependent
same,Survivin mRNA expression,Survivin mRNA [2]; [3],downregulated Survivin mRNA expression
"native Bcl2 siRNA: unconjugated antisense Bcl2 siRNA (SEQ ID NOs: 4 and 5) (chain 1 GCAUGCGGCCUCUGUUUGATT; chain 2 UCAAACAGAGGCCGCAUGCTT; sugars from the 5' end r19 d2, backbone not given here)",BCL2 mRNA expression,BCL2 mRNA,downregulated BCL2 mRNA expression dose-dependently
